In the test the target is T1, SCD (stearoyl-CoA desaturase), SCD-containing rat microsomes (Rattus norvegicus, UniProt P07308).
T1 construct: SCD-containing rat microsomes (2 μg protein); from tissue
T1 sequence (P07308 1-358): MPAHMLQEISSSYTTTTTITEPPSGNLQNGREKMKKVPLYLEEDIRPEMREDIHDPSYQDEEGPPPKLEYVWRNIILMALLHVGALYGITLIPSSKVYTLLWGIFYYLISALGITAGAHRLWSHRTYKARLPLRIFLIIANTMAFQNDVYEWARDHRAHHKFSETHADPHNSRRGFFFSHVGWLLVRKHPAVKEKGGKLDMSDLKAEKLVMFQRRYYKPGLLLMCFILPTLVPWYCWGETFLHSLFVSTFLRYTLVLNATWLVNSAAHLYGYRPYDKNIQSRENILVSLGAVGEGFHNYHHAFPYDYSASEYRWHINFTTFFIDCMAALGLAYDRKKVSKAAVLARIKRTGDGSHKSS
As to the kind of experiment: in vitro assay for SCD activity based on production of [3H]H2O from [9,10-3H] stearoyl Coenzyme A. The settings on record: SCD-containing rat microsomes (2 μg protein), substrate [9,10-3H] stearoyl Coenzyme A 1 μM, 5 minutes preincubation, 6 minutes incubation; read-out: average pIC50 value, in vitro assay for SCD activity (converted). Type of test: biochemical. As to the method: The compounds of the present invention may be analysed in vitro for SCD activity using an assay based on the production of [^3H]H2O, which is released during the enzyme-catalyzed generation of the monounsaturated fatty acyl CoA product. The assay is performed in a 96-well filtration plates. The titrated substrate used in the assay is the [9,10-^3H] stearoyl Coenzyme A. After incubation for 6 minutes of SCD-containing rat microsomes (2 μg protein) and substrate (1 μM), the labelled fatty acid acyl-CoA species and microsomes are absorbed with charcoal and separated from [^3H]H2O by centrifugation. The formation of [^3H]H2O is used as a measure of SCD activity. Compounds at concentrations starting at 10 μM to 0.1 nM or vehicle (DMSO) are preincubated for 5 minutes with the microsomes before addition of the substrate. The concentration-responses are fitted with sigmoidal curves to obtain IC50 values.

Each structure is given as a SMILES string. Counter-ions that a name gives are not always drawn. Bounds are passed on as bounds.

Consider `O=C(Nc1cnn(COc2ccc(Cl)cc2)c1)c1ccc2c(c1)CCNC2` [N-(1-{[(4-chlorophenyl)oxy]methyl}-1H-pyrazol-4-yl)-1,2,3,4-tetrahydro-6-isoquinolinecarboxamide hydrochloride], for which the IC50 was 3.16 to 10 µM.
Take `CC(C)c1ccc(Cn2cc(NC(=O)c3ccc4c(c3)CCNC4)cn2)cc1` [N-(1-{[4-(1-methylethyl)phenyl]methyl}-1H-pyrazol-4-yl)-1,2,3,4-tetrahydro-6-isoquinolinecarboxamide hydrochloride]: the IC50 was more than 10 µM.
To `O=C(Nc1cnn(Cc2ccccc2Cl)c1)c1ccc2c(c1)CCNC2` [Example 8, N-{1-[(2-chlorophenyl)methyl]-1H-pyrazol-4-yl}-1,2,3,4-tetrahydro-6-isoquinolinecarboxamide] belongs 3.16 to 10 µM; to `N#Cc1cccc(Cn2cc(NC(=O)c3ccc4c(c3)CCNC4)cn2)c1` [N-{1-[(3-cyanophenyl)methyl]-1H-pyrazol-4-yl}-1,2,3,4-tetrahydro-6-isoquinolinecarboxamide hydrochloride], 3.16 to 10 µM; to `CC(C)COc1ccc(Cl)cc1Cn1cc(NC(=O)c2ccc3c(c2)CCN(C(=O)OC(C)(C)C)C3)cn1` [1,1-dimethylethyl 6-({[1-({5-chloro-2-[(2-methylpropyl)oxy]phenyl}methyl)-1H-pyrazol-4-yl]amino}carbonyl)-3,4-dihydro-2(1H)-isoquinolinecarboxylate], more than 10 µM.
As for `CC(C)c1c(C(=O)Nc2ccc3c(c2)CCNC3)cnn1Cc1ccc(Cl)c(Cl)c1` [1-[(3,4-dichlorophenyl)methyl]-5-(1-methylethyl)-N-(1,2,3,4-tetrahydro-6-isoquinolinyl)-1H-pyrazole-4-carboxamide hydrochloride], the IC50 was more than 10 µM.
To `O=C(Nc1cnn(Cc2ccccc2C(F)(F)F)c1)c1ccc2c(c1)CCNC2` [N-(1-{[2-(trifluoromethyl)phenyl]methyl}-1H-pyrazol-4-yl)-1,2,3,4-tetrahydro-6-isoquinolinecarboxamide hydrochloride] belongs 3.16 to 10 µM.
Take `O=C(Nc1ccc2c(c1)CCNC2)c1cnn(Cc2ccc(Cl)cc2)c1` [1-[(4-chlorophenyl)methyl]-N-(1,2,3,4-tetrahydro-6-isoquinolinyl)-1H-pyrazole-4-carboxamide hydrochloride]: the IC50 was 3.16 to 10 µM.
Then `CC(C)COc1ccc(Cl)cc1Cn1cc(NC(=O)c2ccc3c(c2)CCNC3)cn1` [N-[1-({5-chloro-2-[(2-methylpropyl)oxy]phenyl}methyl)-1H-pyrazol-4-yl]-1,2,3,4-tetrahydro-6-isoquinolinecarboxamide hydrochloride], with more than 10 µM; and `CC(C)c1ccc(Cn2cc(NC(=O)c3ccc4c(c3)CCN(C(=O)OC(C)(C)C)C4)cn2)cc1` [1,1-dimethylethyl 6-{[(1-{[4-(1-methylethyl)phenyl]methyl}-1H-pyrazol-4-yl)amino]carbonyl}-3,4-dihydro-2(1H)-isoquinolinecarboxylate], with more than 10 µM.
With `O=C(Nc1ccc2c(c1)CCNC2)c1cnn(Cc2ccc(C(F)(F)F)cc2)c1` [N-(1,2,3,4-tetrahydro-6-isoquinolinyl)-1-{[4-(trifluoromethyl)phenyl]methyl}-1H-pyrazole-4-carboxamide hydrochloride], the IC50 is more than 10 µM.
For the molecule `O=C(Nc1cnn(Cc2ccccc2)c1)c1ccc2c(c1)CCNC2` [N-[1-(phenylmethyl)-1H-pyrazol-4-yl]-1,2,3,4-tetrahydro-6-isoquinolinecarboxamide hydrochloride], the IC50 was 3.16 to 10 µM.
In the case of `CC(C)c1nn(Cc2ccc(Cl)c(Cl)c2)cc1C(=O)Nc1ccc2c(c1)CCNC2` [1-[(3,4-dichlorophenyl)methyl]-3-(1-methylethyl)-N-(1,2,3,4-tetrahydro-6-isoquinolinyl)-1H-pyrazole-4-carboxamide hydrochloride], the IC50 was more than 10 µM.
Then `Cc1ccc(Cn2cc(NC(=O)c3ccc4c(c3)CCNC4)cn2)cc1` [Example 14, N-{1-[(4-methylphenyl)methyl]-1H-pyrazol-4-yl}-1,2,3,4-tetrahydro-6-isoquinolinecarboxamide], with 3.16 to 10 µM.
